Structures are written as SMILES.

This assay relates to KRAS G12V dependent lung adenocarcinoma cell line, NCI-H441. The assay can be described thus: Cellular pERK (Thr202/Tyr204) FRET/HTRF assay. Type of assay: cell-based. As to conditions: Homo sapiens, NCI-H441, cellular pERK (Thr202/Tyr204) HTRF, NCI-H441 cells. The essentials: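 NCI-H441 cells (KRAS G12V) were seeded and grown overnight at 37 °C, 5% CO2, then treated with compound in DMSO for 1 hr. Lysates were probed with a Eu3+-cryptate/d2 antibody sandwich against pERK1/2 Thr202/Tyr204 and read by HTRF at 665 nm; IC50 from curve fitting.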
A general note: TR-FRET usually uses a lanthanide donor and a delayed reading to cut background.
As a reminder, the IC50 is the concentration that inhibits the measured activity by half. For `[2H]C([2H])(Oc1nc(N2CCOC[C@H]3[C@H](F)[C@H]32)c2cc(F)c(-c3cc(N)cc(C4CC4)c3C(F)(F)F)c(F)c2n1)[C@@]12CCCN1C[C@H](F)C2` [Example 163, 3-cyclopropyl-5-(6,8-difluoro-4-((1S,7S,8S)-8-fluoro-5-oxa-2-azabicyclo[5.1.0]octan-2-yl)-2-(((2R,7aS)-2-fluorotetrahydro-1H-pyrrolizin-7a(5H)-yl)methoxy-d2)quinazolin-7-yl)-4-(trifluoromethyl)aniline], the IC50 is 500 to 10000 nM. Next, `[2H]C([2H])(Oc1nc(N2CCOC[C@@H]3[C@@H](F)[C@@H]32)c2cc(F)c(-c3cc(N)cc(C4CC4)c3C(F)(F)F)c(F)c2n1)[C@@]12CCCN1C[C@H](F)C2` [Example 164, 3-cyclopropyl-5-(6,8-difluoro-4-((1R,7R,8R)-8-fluoro-5-oxa-2-azabicyclo[5.1.0]octan-2-yl)-2-(((2R,7aS)-2-fluorotetrahydro-1H-pyrrolizin-7a(5H)-yl)methoxy-d2)quinazolin-7-yl)-4-(trifluoromethyl)aniline]: 500 to 10000 nM; `[2H]C([2H])(Oc1nc(N2CCOC[C@H]3[C@H](F)[C@H]32)c2cnc(-c3cc(N)cc(C4CC4)c3C(F)(F)F)c(F)c2n1)[C@@]12CCCN1C[C@H](F)C2` [Example 165, 3-cyclopropyl-5-(8-fluoro-4-((1S,7S,8S)-8-fluoro-5-oxa-2-azabicyclo[5.1.0]octan-2-yl)-2-(((2R,7aS)-2-fluorotetrahydro-1H-pyrrolizin-7a(5H)-yl)methoxy-d2)pyrido[4,3-d]pyrimidin-7-yl)-4-(trifluoromethyl)aniline]: 50 to 500 nM. To `C#Cc1c(F)ccc2cccc(-c3ncc4c(N5CCOC[C@H]6[C@H](F)[C@H]65)nc(OC[C@]56CC(=C)CN5CCC65CC5)nc4c3F)c12` [Example 166, (1S,7S,8S)-2-(7-(8-Ethynyl-7-fluoronaphthalen-1-yl)-8-fluoro-2-(((R)-6′-methylenetetrahydrospiro[cyclopropane-1,1′-pyrrolizin]-7a′(5′H)-yl)methoxy)pyrido[4,3-d]pyrimidin-4-yl)-8-fluoro-5-oxa-2-azabicyclo[5.1.0]octane] belongs < 50 nM; to `[2H]C([2H])(Oc1nc(N2CCOC[C@H]3[C@H](F)[C@H]32)c2cnc(-c3cc(N)c(F)c(C)c3C(F)(F)F)c(F)c2n1)[C@@]12CCCN1C[C@H](F)C2` [Example 167, 2-Fluoro-5-(8-fluoro-4-((1S,7S,8S)-8-fluoro-5-oxa-2-azabicyclo[5.1.0]octan-2-yl)-2-(((2R,7aS)-2-fluorotetrahydro-1H-pyrrolizin-7a(5H)-yl)methoxy-d2)pyrido[4,3-d]pyrimidin-7-yl)-3-methyl-4-(trifluoromethyl) aniline], < 50 nM.

On to `[2H]C([2H])(Oc1nc(N2CCOC[C@H]3[C@H](F)[C@H]32)c2cnc(-c3cc(N)cc(C)c3C(F)(F)F)c(F)c2n1)[C@@]12CCCN1C[C@H](F)C2` [Example 168, 3-(8-fluoro-4-((1S,7S,8S)-8-fluoro-5-oxa-2-azabicyclo[5.1.0]octan-2-yl)-2-(((2R,7aS)-2-fluorotetrahydro-1H-pyrrolizin-7a(5H)-yl)methoxy-d2)pyrido[4,3-d]pyrimidin-7-yl)-5-methyl-4-(trifluoromethyl)aniline], for which the IC50 was in the range of 500 to 10000 nM.

The molecule `[2H]C([2H])(Oc1nc(N2CCOC[C@H]3[C@H](F)[C@H]32)c2cc(F)c(-c3cc(N)cc(C)c3C(F)(F)F)c(F)c2n1)[C@@]12CCCN1C[C@H](F)C2` [Example 169, 3-(6,8-difluoro-4-((1S,7S,8S)-8-fluoro-5-oxa-2-azabicyclo[5.1.0]octan-2-yl)-2-(((2R,7aS)-2-fluorotetrahydro-1H-pyrrolizin-7a(5H)-yl)methoxy-d2)quinazolin-7-yl)-5-methyl-4-(trifluoromethyl)aniline] yielded an IC50 of 500 to 10000 nM. Next, `C#Cc1c(F)ccc2cc(N)cc(-c3ncc4c(N5CCOC[C@H]6[C@H](F)[C@H]65)nc(OC[C@]56CC(=C)CN5CCC65CC5)nc4c3F)c12` [Example 171, 5-Ethynyl-6-fluoro-4-(8-fluoro-4-((1S,7S,8S)-8-fluoro-5-oxa-2-azabicyclo[5.1.0]octan-2-yl)-2-(((R)-6′-methylenetetrahydrospiro[cyclopropane-1,1′-pyrrolizin]-7a′(5′H)-yl)methoxy)pyrido[4,3-d]pyrimidin-7-yl)naphthalen-2-amine]: < 50 nM. Next, `[2H]C([2H])([2H])Oc1c(F)cc(F)c2cc(N)cc(-c3ncc4c(N5CCOC[C@H]6[C@H](F)[C@H]65)nc(OC[C@@]56CCCN5C/C(=C\F)C6)nc4c3F)c12` [Example 172, 6,8-difluoro-4-(8-fluoro-4-((1S,7S,8S)-8-fluoro-5-oxa-2-azabicyclo[5.1.0]octan-2-yl)-2-(((S,Z)-2-(fluoromethylene)tetrahydro-1H-pyrrolizin-7a(5H)-yl)methoxy)pyrido[4,3-d]pyrimidin-7-yl)-5-(methoxy-d3)naphthalen-2-amine]: < 50 nM; `[2H]C([2H])(F)Oc1c(F)cc(F)c2cc(N)cc(-c3ncc4c(N5CCCC[C@H]6[C@H](F)[C@H]65)nc(OC([2H])([2H])[C@@]56CCCN5C[C@H](F)C6)nc4c3F)c12` [Example 173, 6,8-difluoro-4-(8-fluoro-4-((1S,7R,8S)-8-fluoro-2-azabicyclo[5.1.0]octan-2-yl)-2-(((2R,7aS)-2-fluorotetrahydro-1H-pyrrolizin-7a(5H)-yl)methoxy-d2)pyrido[4,3-d]pyrimidin-7-yl)-5-(fluoromethoxy-d2)naphthalen-2-amine]: < 50 nM.

Regarding `[2H]C([2H])(Oc1nc(N2CC=CC[C@H]3[C@H](F)[C@H]32)c2cnc(-c3cc(N)cc4ccc(F)c(C#C)c34)c(F)c2n1)[C@@]12CCCN1C[C@H](F)C2` [Example 174, 5-Ethynyl-6-fluoro-4-(8-fluoro-4-((1S,7R,8S)-8-fluoro-2-azabicyclo[5.1.0]oct-4-en-2-yl)-2-(((2R,7aS)-2-fluorotetrahydro-1H-pyrrolizin-7a(5H)-yl)methoxy-d2)pyrido[4,3-d]pyrimidin-7-yl)naphthalen-2-amine], the IC50 was < 50 nM. In turn, `[2H]C([2H])(Oc1nc(N2CCOC[C@H]3[C@H](F)[C@H]32)c2cc(F)c(-c3nc(N)cc(C)c3C(F)(F)F)c(F)c2n1)[C@@]12CCCN1C[C@H](F)C2` [Example 175, 6-(6,8-difluoro-4-((1S,7S,8S)-8-fluoro-5-oxa-2-azabicyclo[5.1.0]octan-2-yl)-2-(((2R,7aS)-2-fluorotetrahydro-1H-pyrrolizin-7a(5H)-yl)methoxy-d2)quinazolin-7-yl)-4-methyl-5-(trifluoromethyl)pyridin-2-amine] showed an IC50 of 50 to 500 nM. In turn, `[2H]C([2H])(Oc1nc(N2CCOC[C@@H]3[C@@H](F)[C@@H]32)c2cc(F)c(-c3nc(N)cc(C)c3C(F)(F)F)c(F)c2n1)[C@@]12CCCN1C[C@H](F)C2` [Example 176, 6-(6,8-difluoro-4-((1R,7R,8R)-8-fluoro-5-oxa-2-azabicyclo[5.1.0]octan-2-yl)-2-(((2R,7aS)-2-fluorotetrahydro-1H-pyrrolizin-7a(5H)-yl)methoxy-d2)quinazolin-7-yl)-4-methyl-5-(trifluoromethyl)pyridin-2-amine] returned an IC50 of 500 to 10000 nM. To `[2H]C([2H])(Oc1nc(N2CCOC[C@H]3[C@H](F)[C@H]32)c2cc(F)c(-c3cc(N)c(F)c(C)c3C(F)(F)F)c(F)c2n1)[C@@]12CCCN1C[C@H](F)C2` [Example 177, 5-(6,8-difluoro-4-((1S,7S,8S)-8-fluoro-5-oxa-2-azabicyclo[5.1.0]octan-2-yl)-2-(((2R,7aS)-2-fluorotetrahydro-1H-pyrrolizin-7a(5H)-yl)methoxy-d2)quinazolin-7-yl)-2-fluoro-3-methyl-4-(trifluoromethyl)aniline] belongs < 50 nM.

On to `[2H]C([2H])(Oc1nc(N2CCOC[C@@H]3[C@@H](F)[C@@H]32)c2cc(F)c(-c3cc(N)c(F)c(C)c3C(F)(F)F)c(F)c2n1)[C@@]12CCCN1C[C@H](F)C2` [Example 178, 5-(6,8-difluoro-4-((1R,7R,8R)-8-fluoro-5-oxa-2-azabicyclo[5.1.0]octan-2-yl)-2-(((2R,7aS)-2-fluorotetrahydro-1H-pyrrolizin-7a(5H)-yl)methoxy-d2)quinazolin-7-yl)-2-fluoro-3-methyl-4-(trifluoromethyl)aniline], for which the IC50 was in the range of 500 to 10000 nM. Next, `[2H]C([2H])(Oc1nc(N2CCOC[C@H]3[C@H](F)[C@H]32)c2cc(Cl)c(-c3cc(N)cc(C)c3C(F)(F)F)c(F)c2n1)[C@@]12CCCN1C[C@H](F)C2` [Example 179, 3-(6-chloro-8-fluoro-4-((1S,7S,8S)-8-fluoro-5-oxa-2-azabicyclo[5.1.0]octan-2-yl)-2-(((2R,7aS)-2-fluorotetrahydro-1H-pyrrolizin-7a(5H)-yl)methoxy-d2)quinazolin-7-yl)-5-methyl-4-(trifluoromethyl)aniline]: 500 to 10000 nM; `[2H]C([2H])(Oc1nc(N2CCOC[C@H]3[C@H](F)[C@H]32)c2ccc(-c3cc(N)cc(C)c3C(F)(F)F)c(F)c2n1)[C@@]12CCCN1C[C@H](F)C2` [Example 180, 3-(8-fluoro-4-((1S,7S,8S)-8-fluoro-5-oxa-2-azabicyclo[5.1.0]octan-2-yl)-2-(((2R,7aS)-2-fluorotetrahydro-1H-pyrrolizin-7a(5H)-yl)methoxy-d2)quinazolin-7-yl)-5-methyl-4-(trifluoromethyl)aniline]: 500 to 10000 nM; `[2H]C([2H])(Oc1nc(N2CCOC[C@@H]3[C@@H](F)[C@@H]32)c2cc(Cl)c(-c3cc(N)cc(C)c3C(F)(F)F)c(F)c2n1)[C@@]12CCCN1C[C@H](F)C2` [Example 181, 3-(6-chloro-8-fluoro-4-((1R,7R,8R)-8-fluoro-5-oxa-2-azabicyclo[5.1.0]octan-2-yl)-2-(((2R,7aS)-2-fluorotetrahydro-1H-pyrrolizin-7a(5H)-yl)methoxy-d2)quinazolin-7-yl)-5-methyl-4-(trifluoromethyl)aniline]: 500 to 10000 nM.

The values above are taken from patent US20250282799A1, “SUBSTITUTED PYRIDO[4,3-d]PYRIMIDINES AS KRAS MODULATORS” (Alterome Therapeutics, Inc., priority 2023, published 2025).
